Key:
[1] = system: brain volumes of interest (BOLD signal); test: BOLD-sensitive fMRI of anesthetized monkey during i.v. infusion of SKF82958; format: in vivo, M. fascicularis; settings: 0.1 mg/kg total i.v. infusion from 10 to 15 min; one VOI in one subject; 1.5% isoflurane; FIG. 12
Text: To determine how the noise levels in the simulation data just described correspond to realistic biological data, we acquired data using BOLD-sensitive fMRI imaging of an anesthetized monkey with administration of the dopamine agonist SKF82958. Experiments were approved in advance by the Washington University Animal Studies Committee and due care was exercised to prevent discomfort to the animal. During imaging sessions the animal's health was monitored by veterinary staff from the Washington University Division of Comparative Medicine. Two male M. fascicularis monkeys were studied. Imaging was done while the animals were ventilated with 1.5% isoflurane in oxygen. We obtained repeated whole-brain BOLD-sensitive fMRI images at a repetition interval of one every 3 seconds over a 40-minute period. At 10 minutes into the imaging session a steady-rate, slow intravenous infusion of the dopamine D1 agonist. SKF82958 was commenced finishing at 15 minutes, with a total administered dose of 0.1 mg/kg. […] Volumes of interest (VOIs) were traced on structural brain images acquired at the same session. These included left and right caudate, left and right putamen, striatum collectively, whole brain, and a midbrain region. Time-activity curves from each VOI were extracted and submitted to the computer method described above. […]

[2] = system: whole-brain and regional blood flow; settings: total administered dose 0.1 mg/kg; cited from earlier work

## C=CCN1CCc2c(cc(O)c(O)c2Cl)C(c2ccccc2)C1 (stereo not shown) [SKF82958]
[1]
  Emax (magnitude of BOLD response in VOI time-activity curve): at least 20
[2]
  effect on whole-brain mean quantitative blood flow: does not affect
  effects on regional blood flow consistent with local neuronal activation: produces reliable effects
  safety of dose: safe

— US8463552B1, “Methods for medicinal dosage determination and diagnosis” (priority 2005, dated 2013)
